Drawing on publication PMC6265919, “Acylated Aminooligosaccharides with Inhibitory Effects against α-Amylase from Streptomyces sp. HO1518” (Marine Drugs, 2018), this text covers IC50 for six compounds.

By IC50 is commonly meant the concentration that gives 50% inhibition. Lower therefore signals greater potency.

The test deals with T1, porcine pancreatic α-amylase (PPA) (Sus scrofa, UniProt P00690).
T1 sequence (P00690 16-511): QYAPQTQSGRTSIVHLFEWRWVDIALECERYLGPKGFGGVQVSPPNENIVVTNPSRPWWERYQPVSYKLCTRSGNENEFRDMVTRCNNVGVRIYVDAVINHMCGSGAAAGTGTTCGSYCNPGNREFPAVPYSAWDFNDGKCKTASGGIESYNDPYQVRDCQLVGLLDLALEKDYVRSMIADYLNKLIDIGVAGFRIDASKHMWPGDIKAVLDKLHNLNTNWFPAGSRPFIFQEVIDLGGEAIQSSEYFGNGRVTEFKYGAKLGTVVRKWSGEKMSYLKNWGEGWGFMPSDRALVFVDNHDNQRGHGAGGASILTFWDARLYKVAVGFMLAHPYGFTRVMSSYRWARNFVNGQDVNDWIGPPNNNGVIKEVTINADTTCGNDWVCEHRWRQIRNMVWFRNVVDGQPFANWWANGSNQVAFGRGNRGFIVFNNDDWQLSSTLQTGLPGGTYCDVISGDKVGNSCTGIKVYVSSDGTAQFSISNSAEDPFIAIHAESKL
As to the kind of experiment: Porcine pancreatic α-amylase (PPA) inhibitory activity assay (starch-iodine). The test is classed as biochemical. Conditions: PPA 50 U/mL, 0.2% soluble starch, phosphate buffer pH 6.9, 20 °C, 30 min; averages of three replicates. The protocol: Porcine pancreatic α-amylase inhibitory (PPA) inhibitory activity assay was carried out reference to the procedure previously described. In brief, 5 μL of enzyme solution (PPA, 50 U/mL) and 10-fold series diluted test sample solution (inhibitors, dissolved in distilled water) were mixed and pre-incubated. 100 μL of 0.2% soluble starch (substrate, dissolved in 100 mM phosphate buffer, pH 6.9) was added and incubated at 20 °C for 30 min. The reaction was terminated by the addition of 20 μL 1 M HCl. The remaining starch was quantified by using the following method: 100 μL of the reaction solution was mixed with 25 μL of Lugol’s iodine solution. The absorption was measured at 630 nm in the 96-well plates. […] The data were imported into GraphPad Prism version 5.0 (GraphPad Software, San Diego, CA, USA, www.graphpad.com) and the IC50 values were calculated by using a standard dose response curve fitting.
`CC(=O)OC[C@H]1O[C@H](O[C@H]2[C@H](O)[C@@H](O)[C@@H](O[C@H]3[C@H](O)[C@@H](O)[C@@H](O[C@H]4[C@H](O)[C@@H](O)C(O)O[C@@H]4CO)O[C@@H]3CO)O[C@@H]2CO)[C@H](O)[C@@H](O)[C@@H]1O[C@H]1O[C@H](C)[C@@H](N[C@H]2C=C(CO)[C@@H](O[C@H]3O[C@H](CO)[C@@H](O[C@H]4O[C@H](C)[C@@H](N[C@H]5C=C(CO)[C@@H](O)[C@H](O)[C@H]5O)[C@H](O)[C@H]4O)[C@H](O)[C@H]3O)[C@H](O)[C@H]2O)[C@H](O)[C@H]1O` (stereo partly drawn) [compound 1, D6-O-acetyl-acarviostatin II03] gave an IC50 of 29 ± 1 nM.

As for `CC(O)CC(=O)OC[C@H]1O[C@H](O[C@H]2[C@H](O)[C@@H](O)[C@@H](O[C@H]3[C@H](O)[C@@H](O)[C@@H](O[C@H]4[C@H](O)[C@@H](O)C(O)O[C@@H]4CO)O[C@@H]3CO)O[C@@H]2CO)[C@H](O)[C@@H](O)[C@@H]1O[C@H]1O[C@H](C)[C@@H](N[C@H]2C=C(CO)[C@@H](O[C@H]3O[C@H](CO)[C@@H](O[C@H]4O[C@H](C)[C@@H](N[C@H]5C=C(CO)[C@@H](O)[C@H](O)[C@H]5O)[C@H](O)[C@H]4O)[C@H](O)[C@H]3O)[C@H](O)[C@H]2O)[C@H](O)[C@H]1O` (stereo partly drawn) [compound 2, D6-O-β-hydroxybutyryl-acarviostatin II03], the midpoint of inhibition, the IC50, lay at 49 ± 16 nM.

In turn, `CC(=O)OC[C@H]1O[C@H](O[C@H]2[C@H](O)[C@@H](O)[C@@H](O[C@H]3[C@H](O)[C@@H](O)[C@@H](O[C@H]4[C@H](O)[C@@H](O)C(O)O[C@@H]4CO)O[C@@H]3CO)O[C@@H]2CO)[C@H](O)[C@@H](O)[C@@H]1O[C@H]1O[C@H](C)[C@@H](N[C@H]2C=C(CO)[C@@H](O)[C@H](O)[C@H]2O)[C@H](O)[C@H]1O` (stereo partly drawn) [compound 3, D6-O-acetyl-acarviostatin I03] gave a concentration for half-maximal inhibition (IC50) of 693 ± 97 nM. In the case of `CCC(=O)OC[C@H]1O[C@H](O[C@H]2[C@H](O)[C@@H](O)[C@@H](O[C@H]3[C@H](O)[C@@H](O)[C@@H](O[C@H]4[C@H](O)[C@@H](O)C(O)O[C@@H]4CO)O[C@@H]3CO)O[C@@H]2CO)[C@H](O)[C@@H](O)[C@@H]1O[C@H]1O[C@H](C)[C@@H](N[C@H]2C=C(CO)[C@@H](O)[C@H](O)[C@H]2O)[C@H](O)[C@H]1O` (stereo partly drawn) [compound 4, D6-O-propionyl-acarviostatin I03] it was 625 ± 24 nM. In turn, `CC(O)CC(=O)OC[C@H]1O[C@H](O[C@H]2[C@H](O)[C@@H](O)[C@@H](O[C@H]3[C@H](O)[C@@H](O)[C@@H](O[C@H]4[C@H](O)[C@@H](O)C(O)O[C@@H]4CO)O[C@@H]3CO)O[C@@H]2CO)[C@H](O)[C@@H](O)[C@@H]1O[C@H]1O[C@H](C)[C@@H](N[C@H]2C=C(CO)[C@@H](O)[C@H](O)[C@H]2O)[C@H](O)[C@H]1O` (stereo partly drawn) [compound 5, D6-O-β-hydroxybutyryl-acarviostatin I03] came in with an IC50 of 495 ± 63 nM. In turn, `C[C@H]1O[C@H](O[C@H]2[C@H](O)[C@@H](O)[C@@H](O[C@H]3[C@H](O)[C@@H](O)[C@@H](O[C@H]4[C@H](O)[C@@H](O)[C@@H](O[C@H]5[C@H](O)[C@@H](O)C(O)O[C@@H]5CO)O[C@@H]4CO)O[C@@H]3CO)O[C@@H]2CO)[C@H](O)[C@@H](O)[C@@H]1N[C@H]1C=C(CO)[C@@H](O[C@H]2O[C@H](CO)[C@@H](O[C@H]3O[C@H](C)[C@@H](N[C@H]4C=C(CO)[C@@H](O)[C@H](O)[C@H]4O)[C@H](O)[C@H]3O)[C@H](O)[C@H]2O)[C@H](O)[C@H]1O` (stereo partly drawn) [compound 6, acarviostatin II03] returned an IC50 of 29 ± 4 nM. Compared with the last compound, the IC50 is about 17-fold lower.
